Test results from article PMC5748279, “Novel Antitubercular 6-Dialkylaminopyrimidine Carboxamides from Phenotypic Whole-Cell High Throughput Screening of a SoftFocus Library: Structure–Activity Relationship and Target Identification Studies” (Journal of Medicinal Chemistry, 2017).
Converted amounts (≈) assume the structure as drawn. “Also recorded” adds a separate entry of the source. Where two headings read alike, the source gives them in different places.

Columns and labels:
[1] = test system: cytochrome bd oxidase knockout mutant strain (cydKO); format: cell-based; settings: 7H9 GLU ADC medium
[2] = test system: PiniB-LUX reporter (Mtb cell wall biosynthesis); format: cell-based; settings: luminescence over 7 days, INH control
[3] = test system: PrecA-LUX reporter (genotoxic compounds); format: cell-based; settings: luminescence over 7 days, CIPRO control
BCG_3827 (Rv3768) = format: binding, Mycobacterium bovis BCG
BCG_3193 (Rv3169) = BCG_3193 (Rv3169) (Mycobacterium bovis BCG, UniProt A0A1R3Y3B6); experiment: biochemical; format: binding
[4] = target: Mycobacterium bovis BCG extract proteins (Mycobacterium bovis BCG, UniProt A0A1R3Y5K6); experiment: biochemical; format: binding
[5] = target: Mycobacterium bovis BCG extract proteins (Mycobacterium bovis BCG, UniProt A0A1R3Y5N8); experiment: biochemical; format: binding
[6] = target: Mycobacterium bovis BCG extract proteins (Mycobacterium bovis BCG, UniProt P0A4Z9); experiment: biochemical; format: binding
[7] = target: Mycobacterium bovis BCG extract proteins (Mycobacterium bovis BCG, UniProt A1KQG9); experiment: biochemical; format: binding
[8] = target: Mycobacterium bovis BCG extract proteins (Mycobacterium bovis BCG, UniProt A0A1R3Y6U4); experiment: biochemical; format: binding
[9] = target: Mycobacterium bovis BCG extract proteins (Mycobacterium bovis BCG, UniProt A0A1R3Y5J1); experiment: biochemical; format: binding
[10] = target: Mycobacterium bovis BCG extract proteins (Mycobacterium bovis BCG, UniProt A0A1R3Y5H4); experiment: biochemical; format: binding
[11] = target: Mycobacterium bovis BCG extract proteins (Mycobacterium bovis BCG, UniProt P9WKC7); experiment: biochemical; format: binding
[12] = test system: Mycobacterium bovis BCG extract proteins; experiment: biochemical; format: binding
[13] = target: Mycobacterium bovis BCG extract proteins (Mycobacterium bovis BCG, UniProt O69687); experiment: biochemical; format: binding
[14] = target: Mycobacterium bovis BCG extract proteins (Mycobacterium bovis, UniProt A0A1R3Y5J0); experiment: biochemical; format: binding
[15] = target: Mycobacterium bovis BCG extract proteins (Mycobacterium bovis BCG, UniProt P9WGQ7); experiment: biochemical; format: binding
[16] = target: Mycobacterium bovis BCG extract proteins (Mycobacterium bovis BCG, UniProt A1KLS7); experiment: biochemical; format: binding
[17] = target: Mycobacterium bovis BCG extract proteins (Mycobacterium bovis BCG, UniProt A0A0H3M9Z0); experiment: biochemical; format: binding
mice = experiment: Toxicity observed in mice on oral dosing; format: in vivo; settings: higher doses
[18] = Caseum binding using surrogate caseum
[19] = format: in vitro ADME
Protocol: and ultracentrifuged for 4 hours (42000 rpm, 37 °C, Beckman Optima L,80XP). Analyte concentration of all compounds and sample types were determined by means of LC,MS/MS (Agilent Rapid Resolution HPLC, AB SCIEX 4000 QTRAP MS).
4.4) Lipophilicity (LogD7.4)
The lipophilicity assay was performed in triplicate using a shake,flask procedure. 10 mM stock solutions of each test compound were used to spike (100 µM) a 1:1 mixture of phosphate buffer (pH 7.4) and n,octanol. The solutions were shaken vigorously (1500 rpm) on an orbital shaker for 3 hours at room temperature. Thereafter the samples were centrifuged in order to fully separate the two immiscible fluids. The samples were analysed by HPLC,DAD (Agilent 1200 Rapid Resolution HPLC with a diode array detector) and the amount of compound in the buffer and n, octanol were used to determine the partition coefficient, LogD7.4.15
4.5) Parallel Artificial Membrane Permeability Assay (PAMPA):
The PAMPA assay was performed in triplicate in 96,well MultiScreen Filter plates (Millipore, 0.4 µM PCTE Membrane). Membrane filters were pre,coated with 5% hexadecane in hexane and allowed to dry prior to the assay. Membrane integrity marker, Lucifer yellow was added to the apical wells of the pre,coated MultiScreen plate donor/drug solutions containing test compound.
Phosphate buffer (pH7.4) was added to the 96,well acceptor plate. 10 mM test compound was used to spike (1 µM) the donor buffer at physiologically relevant pH's (pH 4, 6.5 and 8), the donor plate slotted into the acceptor plate and incubated (4 hours at room temperature) with gentle shaking (40,50 rpm). Following the incubation, sample from the acceptor wells and theoretical equilibrium wells were transferred to the analysis plate and matrix matched with blank donor buffer. Acetonitrile containing internal standard (carbamazepine, 0.0236 µg/mL) was added to all samples and they were analysed by LC,MS/MS (Agilent Rapid Resolution HPLC, AB SCIEX 4500 MS). The normalised (analyte/internal) peak areas were used to calculate the apparent permeability (Papp). Membrane integrity was assessed by calculating the Papp of Lucifer Yellow […]
chemosensitivity. […]. Thus only viable cells […]
formazan. Formazan crystals are dissolved in DMSO. The test samples were tested in triplicate on […]
experiment. […] Emetine was used […]
as the reference drug in all experiments. The initial concentration of emetine was 100 µg/mL, […]
lowest being 0.001 µg/mL. […] The […]
(§1) the cell viability (data not shown).
GraphPad Prism v.4 software. […]
(§2) expressing the full length hERG channel. Single cell ionic currents were measured in the […]

in vitro [20] = format: in vitro ADME; settings: human, plasma; PPB assay; read-out: free fraction in human plasma
Protocol: (§3) The kinetic solubility assay was performed using a miniaturised shake flask method. 10 mM stock […]
(§4) DMSO, and to spike (1:50) duplicate aqueous samples of FaSSIF (simulating fasting state biorelevant media, pH 6.5), with a final DMSO concentration of 2%. After shaking for 2 hours at 25 °C, the solutions were filtered and analysed by means of HPLC,DAD (Agilent 1200 Rapid Resolution HPLC with a diode array detector). Best fit calibration curves were constructed using the calibration standards, which were used to determine the aqueous samples’ solubility.13
(§5) 4.2) Microsomal stability
The metabolic stability assay was performed in duplicate in a 96,well micro titre plate. […]
the cofactor NADPH (1 mM). […] Test compounds in the supernatant were analysed by means of LC,MS/MS (Agilent Rapid Resolution HPLC, AB SCIEX 4000 QTRAP MS) for the disappearance of parent compound. […]
and ultracentrifuged for 4 hours (42000 rpm, 37 °C, Beckman Optima L,80XP). Analyte concentration of all compounds and sample types were determined by means of LC,MS/MS (Agilent Rapid Resolution HPLC, AB SCIEX 4000 QTRAP MS). […]
The lipophilicity assay was performed in triplicate using a shake,flask procedure. […] The samples were analysed by HPLC,DAD (Agilent 1200 Rapid Resolution HPLC with a diode array detector) and the amount of compound in the buffer and n, octanol were used to determine the partition coefficient, LogD7.4.15 […]

physchem [21] = format: physicochemical
Protocol: as §3, §4, §5
(§6) The metabolic stability assay was performed in duplicate in a 96,well micro titre plate. The test compounds (0.1 µM) were incubated individually in mouse, rat and pooled human liver […]
(§7) the cofactor NADPH (1 mM). Reactions were quenched by adding 300 µL of ice cold acetonitrile containing internal standard (carbamazepine, 0.0236 µg/mL). Test compounds in the supernatant were analysed by means of LC,MS/MS (Agilent Rapid Resolution HPLC, AB SCIEX 4000 QTRAP MS) for the disappearance of parent compound. Metabolite searches were not conducted during the metabolic stability assay.14
(§8) 4.3) Plasma protein binding (PPB) assay
The plasma protein binding assay was performed in a 96,well micro titre plate with pooled human plasma, spiked with test compound (5 µM). An aliquot was immediately removed and quenched using ice cold acetonitrile containing internal standard (carbamazepine, 0.0236 µg/mL), and placed in the freezer. This served as the total concentration sample. After pre,incubation (37 °C for 1 hour) duplicate aliquots of the spiked plasma were transferred to ultra,centrifugation tubes, […]

in vivo = settings: male, C57/BL6, mouse
[22] = test system: Mycobacterium tuberculosis (H37RvMa); experiment: microbe, parasite or virus in culture; parameters: MIC99 by standard broth microdilution against M. tuberculosis H37Rv; settings: sheet table;, MIC99, GAST/Fe medium, read-out: MIC99 GAST/Fe (æM)
[23] = test system: Mycobacterium tuberculosis (H37RvMa); experiment: microbe, parasite or virus in culture; parameters: MIC99 by standard broth microdilution against M. tuberculosis H37Rv; settings: read-out: MIC99 7H9/ADC (æM)
in vitro [24] = settings: african green monkey; sheet table;; IC50 on Vero cells, MTT; read-out: Cytotoxicity (æM)
Protocol: (§9) chemosensitivity. […]. Thus only viable cells
(§10) formazan. Formazan crystals are dissolved in DMSO. The test samples were tested in triplicate on
(§11) experiment. […] Emetine was used
(§12) as the reference drug in all experiments. The initial concentration of emetine was 100 µg/mL,
(§13) lowest being 0.001 µg/mL. […] The
as §1
(§14) GraphPad Prism v.4 software.
Electrophysiologi Table 2 SAR on the Central Core a Kinetic solubility at pH 7.4. b IC50 on Vero cell lines.

physchem [25] = settings: sheet table;; kinetic solubility, pH 7.4; aqueous buffer pH 7.4; Kinetic solubility at pH 7.4; read-out: Solubility (æM)
Protocol: as §3, §4, §5, §6, §7, §8
The plasma protein binding assay was performed in a 96,well micro titre plate with pooled human plasma, spiked with test compound (5 µM). […]

Vero cell lines = format: cell-based, African green monkey; settings: read-out: Cytotoxicity (IC50 on Vero cell lines)
Protocol: as §9, §10, §11, §12, §13, §1, §14, §2

[26] = test system: Mycobacterium tuberculosis (H37RvMa); experiment: microbe, parasite or virus in culture; format: cell-based; settings: for MIC99 7H9/ADC: 7H9/ADC medium; for MIC99 GAST/Fe: GAST/Fe medium

Compound: COc1ccc(NC(=O)c2cc(N(C)Cc3ccccc3)ncn2)cc1 [Compound 1, 6-(Benzyl(methyl)amino)-N-(4-methoxyphenyl)pyrimidine-4-carboxamide]
- Δcyd 7H9 GLU ADC MIC99 [1]: > 20 µM
- PiniB-LUX reporter response [2]: did not elicit a positive response; also recorded: no response
- PrecA-LUX reporter response [3]: delayed (Day 3 onwards) induction of luminescence

Compound: O=C(Nc1ccccc1)c1ccc(=O)n(Cc2ccc(F)cc2)c1 [Compound 25, 1-(4-Fluorobenzyl)-6-oxo-N-phenyl-1,6-dihydropyridine-3-carboxamide]
- IC50 (BCG_3827 (Rv3768)): ≥ 30 µM
- binding of BCG_3827 to the compound beads in presence of free compound (BCG_3827 (Rv3768)): no effect
- pIC50 (BCG_3827 (Rv3768)): ≤ 4.52
- relative abundance 10: Compound competition 0.029 µM 25 (BCG_3827 (Rv3768); 0.029 µM): 1.06
- relative abundance 9: Compound competition 0.117 µM 25 (BCG_3827 (Rv3768); 0.117 µM): 0.70
- relative abundance 8: Compound competition 0.47 µM 25 (BCG_3827 (Rv3768); 0.47 µM): 1.39
- relative abundance 7: Compound competition 1.88 µM 25 (BCG_3827 (Rv3768); 1.88 µM): 1.36
- relative abundance 6: Compound competition 7.5 µM 25 (BCG_3827 (Rv3768); 7.5 µM): 1.52
- relative abundance 5: Compound competition 30 µM 25 (BCG_3827 (Rv3768); 30 µM): 1.12
- binding of BCG_3193 to the compound beads in presence of free compound (BCG_3193 (Rv3169)): no effect
- IC50 ([4]; IC50): ≥ 30 µM
- IC50 ([4]; pIC50): ≥ 30.2 µM
- IC50 ([5]; IC50): ≥ 30 µM
- IC50 ([5]; pIC50): ≥ 30.2 µM
- IC50 [6]: ≥ 30 µM
- pIC50 [6]: ≤ 4.52
- IC50 [7]: ≥ 30 µM
- pIC50 [7]: ≤ 4.52
- IC50 ([8]; IC50): ≥ 30 µM
- IC50 ([8]; pIC50): ≥ 30.2 µM
- IC50 [9]: ≥ 30 µM
- pIC50 [9]: ≤ 4.52
- IC50 [10]: ≥ 30 µM
- pIC50 [10]: ≤ 4.52
- IC50 ([11]; IC50): ≥ 30 µM
- IC50 ([11]; pIC50): ≥ 30.2 µM
- IC50 [12]: ≥ 30 µM
- pIC50 [12]: ≤ 4.52
- IC50 [13]: ≥ 30 µM
- pIC50 [13]: ≤ 4.52
- IC50 ([14]; IC50): ≥ 30 µM
- IC50 ([14]; pIC50): ≥ 30.2 µM
- IC50 ([15]; IC50): ≥ 30 µM
- IC50 ([15]; pIC50): ≥ 30.2 µM
- IC50 [16]: ≥ 30 µM
- pIC50 [16]: ≤ 4.52
- IC50 [17]: ≥ 30 µM
- pIC50 [17]: ≤ 4.52

Compound: CN(Cc1ccc(C(F)(F)F)nc1)c1cc(C(=O)Nc2nncs2)ncn1 [Compound 52, 6-(Methyl((6-(trifluoromethyl)pyridin-3-yl)methyl)amino)-N-(1,3,4-thiadiazol-2-yl)pyrimidine-4-carboxamide]
- toxicity to mice (mice): toxic to mice when dosed orally above 50 mg/kg
- caseum distribution unbound [18]: 3.6%
- PAMPA log Papp [19]: –3.9
- fraction unbound at 4 h, 5 µM (in vitro [20]): ≤ 0.3
- solubility at 2 h (physchem [21]; pH 6.5, fasted-state simulated intestinal fluid, read-out: FassiF solubility at pH 6.5): > 100 µM
- solubility kinetic at 2 h (physchem [21]; pH 7.4, pH 7.4): > 100 µM
- AUC(0-inf) at 24 h (in vivo; iv, 5 mg/kg): 35.1 µM·h
- clearance at 24 h (in vivo; iv, 5 mg/kg): 6.6 mL/min/kg
- AUC(0-inf) at 24 h (in vivo; po, 20 mg/kg): 93.6 µM·h
- half-life (in vivo; po, 20 mg/kg): 3 h

Compound: CC(=O)N1CCN(c2ccc(NC(=O)c3cc(N(C)Cc4ccc(C(F)(F)F)nc4)ncn3)cn2)CC1 [compound 44]
- MIC99 [22]: 2.3 µM (≈ 1.18 µg/mL)
- MIC99 [23]: 4.7 µM (≈ 2.42 µg/mL)
- CC50 (in vitro [24]): > 50 µM
- solubility at 2 h (physchem [25]): < 5 µM

Compound: N-(4-(4-Acetylpiperazin-1-yl)phenyl)-6-(methyl((6-(trifluoromethyl)pyridin-3-yl)methyl)amino)pyrimidine-4-carboxamide [Compound 44]
- IC50 (Vero cell lines): > 50 µM
- solubility kinetic at 2 h (physchem [21]; pH 7.4): <5 µM
- Solubility (physchem [21]; supplementary csv): <5 æM
- MIC99 7H9/ADC [26]: 4.7 µM
- MIC99 7H9/ADC ([26]; supplementary csv): 4.7 æM
- MIC99 GAST/Fe [26]: 2.3 µM
- MIC99 GAST/Fe ([26]; supplementary csv): 2.3 æM
- MIC ([26]; medium not stated): < 5 µM
